“Also recorded” adds a separate entry of the source.
How the values were obtained:
[1] = system: 129Sv/J Alport mice (COL4A3 knockout mouse); test: Animal model of Alport syndrome; assay type: in vivo, 129Sv/J mice; conditions: 100 mg/kg oral once a day, 4 weeks
Description: The experiment was conducted using 129Sv/J mice (Boys town hospital). Animals groups were (i) 129Sv/J wild-type mice with vehicle administration (0.5% methyl cellulose suspension), (ii) 129Sv/J Alport mice (COL4A3 knockout mouse, Cosgrove D et al., Genes Dev. 1996 Dec. 1, 10(23):2981-92) with vehicle administration (0.5% methyl cellulose suspension) (iii) 129Sv/J Alport mice with BC-KI-00053 administration. Each animal group consists of two mice. BC-KI-00053 was dissolved in 0.5% methyl cellulose suspension and orally administered at a concentration of 100 mg/kg, and kidney fibrosis and the immune cell infiltration were evaluated. Each animal group was treated with a control substance or a test agent once a day from 3 weeks of age for a total of 4 weeks. After 4 weeks of treatment, kidney paraffin sections were stained with collagen I (a marker of fibrosis) and CD45 to observe the extent of leukocyte infiltration. Evaluation of fibrosis and infiltration was performed in the same manner as in the above examples.

RAW 264.7 cells = test: Transwell migration assay of monocytes/macrophages; assay type: cell-based; conditions: laminin 421 1 μg/ml, 30 nM-3 μM, 24 hours, concentration-dependent
Description: Among several extracellular matrix (ECM), it was examined which ECM promotes the migration and infiltration of immune cells, typically monocytes/macrophages. A transwell migration assay was performed using collagen (Col), fibronectin (FN) and laminin (LN) as extracellular matrices, and detailed methods were as follows. Transwells (Corning, #3421-5 mm) were coated with gelatin (0.5 mg/ml) and RAW 264.7 cells (1×10^5 cells/well) were seeded into the top chambers. Serum free DMEM (500 μl) containing 10 μg/ml of laminin (laminin mixture, Biolamina), fibronectin or collagen, respectively, was placed in the bottom chambers. After 24 hours, cells were fixed with 70% methanol for 30 minutes and stained with 50% hematoxylin for 30 minutes. After removing non-migrating cells from the top of the membrane with a cotton swab, the membrane was taken and mounted on the slide. Migrating cells on the underside of the membrane were observed and quantified under a high magnification microscope.
Effect of laminin subtypes on the immune cell migration and infiltration was evaluated. A transwell migration assay was performed in the same manner as in Example 1 using LN111, LN211, LN221, LN411, LN421, LN511, and LN521 as various laminin subtype proteins (purchased from Biolamina). Specific sequences of laminin subtypes are referred to α4 chain of SEQ ID NO:4, α2 chain of SEQ ID NO: 10, α5 chain of SEQ ID NO: 11, β2 chain of SEQ ID NO:6, β1 chain of SEQ ID NO: 12, γ1 chain of SEQ ID NO: 8. according to the chain forming each laminin subtype,
For each of the transformed macrophages, a transwell migration assay was performed in the same manner as in Example 1 using 1 μg/ml of laminin 421.
Thus identified agents as inhibiting the translocation of KRS to the plasma membrane was added to the LN421-treated macrophages to perform a transwell migration assay. […] Migrating cells on the underside of the membrane were observed and quantified under a high magnification microscope. […]

Compound: COc1ccc(CCN(Cc2ccc(C(=O)O)cc2)c2nc3cccc(F)c3s2)cc1 [BC-KI-00053, 4-({(7-fluorobenzo[d]thiazol-2-yl)[2-(4-methoxyphenyl)ethyl]amino}methyl)benzoic acid]
- fibrosis in the kidneys (collagen I) [1]: reduced down to the normal level
- leukocyte infiltration in the kidneys (CD45) [1]: reduced down to the normal level
- LN421-specific monocyte/macrophage migration (RAW 264.7 cells): noticeably suppressed; also recorded: significantly inhibited

Reference: patent US11378572B2, “Therapeutic agent for immune cell migration-caused disease and method for screening same” (ZYMEDI CO., LTD., priority 2017, dated 2022)
